{
  "source": "patent US20200361908A1",
  "about": "“CRYSTALS OF ANILINE PYRIMIDINE COMPOUND SERVING AS EGFR INHIBITOR” (CHIA TAI TIANQING PHARMACEUTICAL GROUP CO., LTD., priority 2016, published 2020)",
  "key": {"[1]": {"experiment": "Stability test of crystal B under high temperature, high humidity or illumination", "format": "physicochemical", "method": "(§1) The stability of the crystal according to the present application may be detected by placing the crystal under a condition with a high temperature, a high humidity, or a lighting condition. The high temperature condition may be 40° C. to 60° C., the high humidity condition may be a relative humidity of 75% to 92.5% RH, and the lighting condition may be 5000 Lux. The crystal stability may be evaluated by investigating several parameters, such as the content of the crystal, the total content of impurities, or the water content, of a sample, and comprehensively evaluating these parameters according to the properties of the product.\nThe crystal B obtained by Method 5 of Example 4 was kept respectively in an environment at a high temperature of 60° C., a high humidity of 75% RH, a high humidity of 92.5% RH, or an illumination intensity of 5000 Lux, and sampled for detection on days 5, 10, and 30, respectively."}, "[2]": {"experiment": "Stability test of crystal A at room temperature, kept away from light", "format": "physicochemical", "method": "as §1\nThe crystal A obtained by Method 1 of Example 3 was kept away from light at room temperature, and sampled for detection in months 1.5, 2, 5, and 6, respectively."}},
  "data": [
    {"smiles": "C=CC(=O)Nc1cc(Nc2nccc(-n3c(=O)n(C)c4ccccc43)n2)c(OC)cc1N(C)CCN(C)C", "note": "[crystal B]", "values": [
      {"measurement": "Characters", "setting": "[1]; Day 0", "result": "white"},
      {"measurement": "Content (%)", "setting": "[1]; Day 0", "result": 99.3, "unit": "%"},
      {"measurement": "Total Impurity (%)", "setting": "[1]; Day 0", "result": 0.12, "unit": "%"},
      {"measurement": "Characters", "setting": "[1]; High Humidity 75% RH, Day 5", "result": "white"},
      {"measurement": "Content (%)", "setting": "[1]; High Humidity 75% RH, Day 5", "result": 99.3, "unit": "%"},
      {"measurement": "Characters", "setting": "[1]; High Humidity 75% RH, Day 10", "result": "white"},
      {"measurement": "Content (%)", "setting": "[1]; High Humidity 75% RH, Day 10", "result": 103.6, "unit": "%"},
      {"measurement": "Total Impurity (%)", "setting": "[1]; High Humidity 75% RH, Day 10", "result": 0.07, "unit": "%"},
      {"measurement": "Characters", "setting": "[1]; High Humidity 75% RH, Day 30", "result": "off-white"},
      {"measurement": "Content (%)", "setting": "[1]; High Humidity 75% RH, Day 30", "result": 106.4, "unit": "%"},
      {"measurement": "Total Impurity (%)", "setting": "[1]; High Humidity 75% RH, Day 30", "result": 0.06, "unit": "%"},
      {"measurement": "Characters", "setting": "[1]; High Humidity 92.5% RH, Day 5", "result": "white"},
      {"measurement": "Content (%)", "setting": "[1]; High Humidity 92.5% RH, Day 5", "result": 98.4, "unit": "%"},
      {"measurement": "Characters", "setting": "[1]; High Humidity 92.5% RH, Day 10", "result": "white"},
      {"measurement": "Content (%)", "setting": "[1]; High Humidity 92.5% RH, Day 10", "result": 105.2, "unit": "%"},
      {"measurement": "Total Impurity (%)", "setting": "[1]; High Humidity 92.5% RH, Day 10", "result": 0.06, "unit": "%"},
      {"measurement": "Characters", "setting": "[1]; High Humidity 92.5% RH, Day 30", "result": "off-white"},
      {"measurement": "Content (%)", "setting": "[1]; High Humidity 92.5% RH, Day 30", "result": 103.9, "unit": "%"},
      {"measurement": "Total Impurity (%)", "setting": "[1]; High Humidity 92.5% RH, Day 30", "result": 0.07, "unit": "%"},
      {"measurement": "Characters", "setting": "[1]; High Temp. 60° C., Day 5", "result": "white"},
      {"measurement": "Content (%)", "setting": "[1]; High Temp. 60° C., Day 5", "result": 100.5, "unit": "%"},
      {"measurement": "Characters", "setting": "[1]; High Temp. 60° C., Day 10", "result": "white"},
      {"measurement": "Content (%)", "setting": "[1]; High Temp. 60° C., Day 10", "result": 104.2, "unit": "%"},
      {"measurement": "Total Impurity (%)", "setting": "[1]; High Temp. 60° C., Day 10", "result": 0.09, "unit": "%"},
      {"measurement": "Characters", "setting": "[1]; High Temp. 60° C., Day 30", "result": "off-white"},
      {"measurement": "Content (%)", "setting": "[1]; High Temp. 60° C., Day 30", "result": 107.9, "unit": "%"},
      {"measurement": "Total Impurity (%)", "setting": "[1]; High Temp. 60° C., Day 30", "result": 0.19, "unit": "%"},
      {"measurement": "Characters", "setting": "[1]; Illumination 5000 Lux, Day 5", "result": "white"},
      {"measurement": "Content (%)", "setting": "[1]; Illumination 5000 Lux, Day 5", "result": 99.4, "unit": "%"},
      {"measurement": "Total Impurity (%)", "setting": "[1]; Illumination 5000 Lux, Day 5", "result": 0.06, "unit": "%"},
      {"measurement": "Characters", "setting": "[1]; Illumination 5000 Lux, Day 10", "result": "white"},
      {"measurement": "Content (%)", "setting": "[1]; Illumination 5000 Lux, Day 10", "result": 106.9, "unit": "%"},
      {"measurement": "Total Impurity (%)", "setting": "[1]; Illumination 5000 Lux, Day 10", "result": 0.14, "unit": "%"},
      {"measurement": "Characters", "setting": "[1]; Illumination 5000 Lux, Day 30", "result": "off-white"},
      {"measurement": "Content (%)", "setting": "[1]; Illumination 5000 Lux, Day 30", "result": 107.9, "unit": "%"},
      {"measurement": "Total Impurity (%)", "setting": "[1]; Illumination 5000 Lux, Day 30", "result": 0.37, "unit": "%"}
    ]},
    {"smiles": "C=CC(=O)Nc1cc(Nc2nccc(-n3c(=O)n(C)c4ccccc43)n2)c(OC)cc1N(C)CCN(C)C", "note": "[crystal A]", "values": [
      {"measurement": "Characters", "setting": "[2]; Initial Result", "result": "off-white"},
      {"measurement": "Content (%)", "setting": "[2]; Initial Result", "result": 100.3, "unit": "%"},
      {"measurement": "Total Impurity (%)", "setting": "[2]; Initial Result", "result": 1.11, "unit": "%"},
      {"measurement": "Characters", "setting": "[2]; Month 1.5", "result": "off-white"},
      {"measurement": "Content (%)", "setting": "[2]; Month 1.5", "result": 100.5, "unit": "%"},
      {"measurement": "Total Impurity (%)", "setting": "[2]; Month 1.5", "result": 1.52, "unit": "%"},
      {"measurement": "Characters", "setting": "[2]; Month 2", "result": "off-white"},
      {"measurement": "Total Impurity (%)", "setting": "[2]; Month 2", "result": 1.23, "unit": "%"},
      {"measurement": "Characters", "setting": "[2]; Month 5", "result": "off-white"},
      {"measurement": "Content (%)", "setting": "[2]; Month 5", "result": 100, "unit": "%"},
      {"measurement": "Total Impurity (%)", "setting": "[2]; Month 5", "result": 1.5, "unit": "%"},
      {"measurement": "Characters", "setting": "[2]; Month 6", "result": "off-white"},
      {"measurement": "Content (%)", "setting": "[2]; Month 6", "result": 99.8, "unit": "%"},
      {"measurement": "Total Impurity (%)", "setting": "[2]; Month 6", "result": 1.37, "unit": "%"}
    ]}
  ]
}
